Assays:
[1] = system: EZ-resistant C4-2B (PC); experiment: MTT cell viability, EZ-resistant C4-2B (MDVR); assay type: cell-based; conditions: Homo sapiens, 48 h / 24 hours, relative IC50
Experimental: Cell culture: In the following examples, unless otherwise specified, all cell lines are purchased from American Type Culture Collection and cultured in American Type Culture Collection (ATCC)-recommended media, with fetal bovine serum (FBS) to a final concentration of 10% and 1×penicillin/streptomycin at 37° C. with 5% CO2 in a cell culture incubator, unless otherwise specified. Unless otherwise specified, culture is 2D. Where culture is 3D, low attachment plates are used, with the same media. C4-2B (parental cell line and drug-resistant cells derived therefrom) are cultured in RPMI-1640 with 10% FBS. MDVR cells (an Enzalutamide-resistant variety of C4-2B prostate cancer cells formed as described in Example 4 below) are cultured as indicated for the parental C4-2B cells. 22RV1 Prostate Cancer (PC) cells (ATCC® CRL-2505™, a human prostate carcinoma cell line of epithelial morphology) are cultured in RPMI-1640 with 10% FBS. A549 cells (ATCC® CCL-185™, a human lung carcinoma cell line of epithelial morphology) are cultured in F-12K medium with 10% FBS. A549/DDP cells (Cells were described in DOI: 10.3892/mmr.2014.2163 and in doi: 10.7150/jca.19426; cisplatin resistant cells may be established from exposing parental A549 cells to cisplatin for an extended time). MDR A549/cisplatin lung adenocarcinoma cell line, drug resistant) are cultured in F-12K medium with 10% FBS. […]

[2] = system: 22Rv1 human prostate carcinoma tumors; experiment: Tumor volume of 22Rv1 tumors grown subcutaneously in mice; assay type: in vivo; conditions: 5 mg/kg, intravenously injected
Experimental: Example 1D: 22Rv1 human prostate carcinoma cells are cultured as described above, separated from the medium, resuspended in 50% phosphate buffered saline (PBS) and 50% BD Matrigel™ (BD Biosciences, CA), and then the re-suspended cells are injected and grown subcutaneously in mice. […] The decrease of the THSD in the tumors at 2 and 4 weeks, respectively, as determined by NIR signal, is less than about 30%.
Example 1E: 22Rv1 human prostate carcinoma cells are cultured, injected and grown subcutaneously in mice as described above in example 1D. Tumor volume is monitored by measuring the size by caliper and calculating volume as described in example 9 below. The mice are intravenously injected with the following: ALSD of formula FIId, “DZ2a”, compound 7, the corresponding unconjugated dye (here: DZ1), unconjugated Simvastatin, a statin drug (SIM), and docetaxel (DOC), a cancer drug, and a mixture of the ALSD with DOC. Each active was administered in an amount of 5 mg/kg for the ALSD, DZ1, and SIM, except, in case of DOC, 8 mg/kg. A slower rate of increased tumor volume indicates tumor suppressive activity.

[3] = system: 22Rv1 cancer cells; experiment: Western blot for polyubiquitinated proteins; assay type: cell-based, human; conditions: anti-ubiquitin antibody
Experimental: Example 3D: Proteins are denatured and separated as described in example 3C; on the membrane a western blot is performed using an antibody that targets ubiquitin for detection of polyubiquitinated proteins; the probes include a molecular weight marker (“Marker”), DMSO (vehicle which serves as a control), an unconjugated statin (Simvastatin), an unconjugated dye (DZ1), and the THSD (here ALSD of formula FIId, “DZ2a”, compound 7). […] Thus it is shown that THSD prevent the removal of polyubiquitinated proteins by cancer cells through altered autophagic processes which involve defective lysosomal functions.

SMILES	IC50 [1]	tumor suppressive activity (tumor volume increase) [2]	ubiquitin signal (polyubiquitinated proteins) [3]
CCC(C)(C)C(=O)O[C@H]1C[C@@H](C)C=C2C=C[C@H](C)[C@H](CC[C@@H]3C[C@@H](O)CC(=O)O3)[C@H]21 [Simvastatin]	25.5 µM		
CC1(C)C(/C=C/C2=C(Cl)C(=C/C=C3/N(CCCCCC(=O)O)c4ccccc4C3(C)C)/CCC2)=[N+](CCCCS(=O)(=O)[O-])c2ccccc21 [DZ1]		no significant tumor suppressive activity	much weaker signals and less of a smear

Reference: US20230116399A1, “Tumor Homing Statin Derivatives” (Da Zen Theranostics, Inc., priority 2019, published 2023)
